# Results as given in patent US6737383B1, “Herbicidal oxadiazolidines” (priority 1999, dated 2004).
# Experiments:
# duck salad = assay: Test B flood test duck salad; type: in vivo, Heteranthera limosa
# Method in brief: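 Flood test on plants grown to the 2-leaf stage; treated plants kept in greenhouse twelve to sixteen days, then visually rated against controls on a 0 (no effect) to 10 (complete control) scale.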
# crabgrass = assay: Test B pre/postemergence crabgrass; type: in vivo, Digitaria sanguinalis
# Method in brief: (§1)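 Response is a visual 0-to-10 score relative to untreated plants, where 0 means no effect and 10 means complete control, taken twelve to sixteen days after application. Treatments went onto soil at planting and onto foliage of 1- to 4-leaf plants, using a surfactant-containing non-phytotoxic solvent.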
# giant foxtail = assay: Test B pre/postemergence giant foxtail; type: in vivo, Setaria faberii
# Method in brief: as §1
# wheat = assay: Test B pre/postemergence wheat; type: in vivo, Triticum aestivum
# Method in brief: as §1
# [1] = Postemergence section (flood test species), Rate 500 g/ha, scale of 0 to 10 where 0 is no effect and 10 is complete control
# [2] = Rate 62 g/ha, Postemergence (flood test species), scale of 0 to 10 where 0 is no effect and 10 is complete control
# [3] = Rate 125 g/ha, Postemergence section (flood test species), scale 0 to 10, 0 is no effect, 10 is complete control
# [4] = Postemergence, Rate 250 g/ha, scale 0 to 10, 0 is no effect, 10 is complete control
# [5] = Postemergence, Rate 500 g/ha, scale of 0 to 10 where 0 is no effect and 10 is complete control
# [6] = Preemergence, Rate 62 g/ha, scale 0 to 10 (0 no effect, 10 complete control)
# [7] = Preemergence, Rate 125 g/ha, scale of 0 to 10 where 0 is no effect and 10 is complete control
# [8] = Preemergence, Rate 250 g/ha, scale 0 to 10, 0 is no effect, 10 is complete control
# [9] = Preemergence, Rate 500 g/ha, scale 0 to 10, 0 is no effect, 10 is complete control
# [10] = Rate 62 g/ha, Postemergence, scale of 0 to 10 where 0 is no effect and 10 is complete control
# [11] = Rate 125 g/ha, Postemergence, scale 0 to 10, 0 is no effect, 10 is complete control
# [12] = Postemergence block (flood test species), Rate 250 g/ha, scale 0 to 10
# [13] = Postemergence, Rate 250 g/ha, scale 0 to 10
# [14] = Preemergence, Rate 62 g/ha, scale of 0 to 10 where 0 is no effect and 10 is complete control
# [15] = Rate 62 g/ha, Postemergence, scale 0 to 10, 0 no effect, 10 complete control
SMILES,Ducksalad plant response rating (duck salad; [1]),Ducksalad plant response rating (duck salad; [2]),Ducksalad plant response rating (duck salad; [3]),Crabgrass plant response rating (crabgrass; [5]),"Plant response rating, Crabgrass (crabgrass; [6])","Plant response rating, Crabgrass (crabgrass; [7])",Crabgrass plant response rating (crabgrass; [8]),Crabgrass plant response rating (crabgrass; [9]),Crabgrass plant response rating (crabgrass; [10]),Crabgrass plant response rating (crabgrass; [11]),Giant foxtail plant response rating (giant foxtail; [5]),"Plant response rating, Giant foxtail (giant foxtail; [7])",Giant foxtail plant response rating (giant foxtail; [8]),Giant foxtail plant response rating (giant foxtail; [9]),Giant foxtail plant response rating (giant foxtail; [11]),Wheat plant response rating (wheat; [5]),"Plant response rating, Wheat (wheat; [7])",Wheat plant response rating (wheat; [8]),Wheat plant response rating (wheat; [9]),Wheat plant response rating (wheat; [11]),further results
CC(C)N(C(=O)n1oc(=O)n(CCl)c1=O)c1ccc(Cl)cc1 [Compound 422],0,0,0,0,0,0,0,0,0,0,0,0,0,0,0,0,0,0,0,0,"Plant response rating, Ducksalad (duck salad; flood test species, listed under Postemergence, Rate 250 g/ha, scale 0 to 10, 0 is no effect, 10 is complete control): 0; Plant response rating, Crabgrass (crabgrass; [4]): 0; Plant response rating, Giant foxtail (giant foxtail; [4]): 0; Plant response rating, Giant foxtail (giant foxtail; [6]): 0; Giant foxtail plant response rating (giant foxtail; [10]): 0; Plant response rating, Wheat (wheat; [6]): 0"
CC(C)N(C(=O)n1oc(=O)n(CC2=NOCCC2)c1=O)c1ccccc1 [Compound 430],0,0,0,9,9,10,10,10,1,2,9,10,10,10,8,0,0,0,5,0,"Ducksalad plant response rating (duck salad; [12]): 0; Crabgrass plant response rating (crabgrass; [13]): 8; Giant foxtail plant response rating (giant foxtail; [13]): 9; Plant response rating, Giant foxtail (giant foxtail; [6]): 10; Giant foxtail plant response rating (giant foxtail; [10]): 6; Wheat plant response rating (wheat; [13]): 0; Plant response rating, Wheat (wheat; [6]): 0"
CC(C)N(C(=O)n1oc(=O)n(CC#N)c1=O)c1ccc(F)cc1F [Compound 431],0,0,0,2,0,,,3,0,0,6,0,2,3,0,0,0,0,0,0,"Ducksalad plant response rating (duck salad; [12]): 0; Crabgrass plant response rating (crabgrass; [13]): 0; Giant foxtail plant response rating (giant foxtail; [13]): 0; Plant response rating, Giant foxtail (giant foxtail; [6]): 0; Giant foxtail plant response rating (giant foxtail; [10]): 0; Wheat plant response rating (wheat; [13]): 0; Plant response rating, Wheat (wheat; [6]): 0"
CC(C)N(C(=O)n1oc(=O)n(CCC#N)c1=O)c1ccc(F)cc1F [Compound 433],0,0,0,9,9,10,10,10,2,2,8,10,10,10,4,3,0,0,2,0,"Ducksalad plant response rating (duck salad; [12]): 0; Crabgrass plant response rating (crabgrass; [13]): 4; Giant foxtail plant response rating (giant foxtail; [13]): 6; Plant response rating, Giant foxtail (giant foxtail; [6]): 10; Giant foxtail plant response rating (giant foxtail; [10]): 4; Wheat plant response rating (wheat; [13]): 0; Plant response rating, Wheat (wheat; [6]): 0"
CC(C)N(C(=O)n1oc(=O)n(CCl)c1=O)c1ccc(F)cc1F [Compound 437],,,,3,,0,0,2,,1,7,0,0,3,0,0,0,0,0,0,"Plant response rating, Ducksalad (0 to 10 scale, 0 is no effect, 10 is complete control) (duck salad; Rate 62 g/ha, flood test species, Pre-emergence, visual evaluation after twelve to sixteen days): 0; Ducksalad plant response rating (0 to 10 scale, 0 is no effect, 10 is complete control) (duck salad; Rate 125 g/ha, under heading Pre-emergence, flood test species, visual evaluation after twelve to sixteen days): 0; Ducksalad plant response rating (duck salad; Rate 250 g/ha, Pre-emergence (flood test species), scale 0 to 10, 0 is no effect, 10 is complete control): 0; Ducksalad plant response rating (duck salad; Rate 500 g/ha, Pre-emergence, flood test species, scale 0 to 10 (0 no effect, 10 complete control)): 0; Crabgrass plant response rating (crabgrass; [13]): 1; Plant response rating, Crabgrass (crabgrass; [14]): 0; Crabgrass plant response rating (crabgrass; [15]): 0; Giant foxtail plant response rating (giant foxtail; [13]): 0; Plant response rating, Giant foxtail (giant foxtail; [14]): 0; Giant foxtail plant response rating (giant foxtail; [15]): 0; Wheat plant response rating (wheat; [13]): 0; Plant response rating, Wheat (wheat; [14]): 0; Wheat plant response rating (wheat; [15]): 0"
